Data taken from patent US20150218212A1, “FLUORINATED EPOXYKETONE-BASED TETRAPEPTIDE COMPOUNDS AND USES THEREOF AS PROTEASOME INHIBITORS” (FLUORINOV PHARMA INC., priority 2012, published 2015).

Key:
Type in all cases: cell-based, human
[1] = system: HCT-116; assay: NCI screening panel, HCT-116 (Colon Cancer)
Description: (§1) Representative compounds of Formula I were screened using the National Cancer Institute (NCI) screening panel, which consists of a panel of human tumor cell lines, representing leukemia, melanoma, and cancers of the lung, colon, ovary, breast, prostate and renal system.
(§2) After 24 h, two plates of each cell line are fixed in situ with TCA, to represent a measurement of the cell population for each cell line at the time of drug addition (Tz). Experimental drugs are solubilised in dimethyl sulfoxide at 400-fold the desired final maximum test concentration and stored frozen prior to use. At the time of drug addition, an aliquot of frozen concentrate is thawed and diluted to twice the desired final maximum test concentration with complete medium containing 50 μg/mL gentamicin. Additional four, 10-fold or ½ log serial dilutions are made to provide a total of five drug concentrations plus control. Aliquots of 100 μl of these different drug dilutions are added to the appropriate microtiter wells already containing 100 μl of medium, resulting in the required final drug concentrations.
(§3) Following drug addition, the plates are incubated for an additional 48 h at 37° C., 5% CO2, 95% air, and 100% relative humidity. For adherent cells, the assay is terminated by the addition of cold TCA (trichloroacetic acid). Cells are fixed in situ by the gentle addition of 50 μl of cold 50% (w/v) TCA (final concentration, 10% TCA) and incubated for 60 minutes at 4° C. The supernatant is discarded, and the plates are washed five times with tap water and air dried. Sulforhodamine B (SRB) solution (100 μl) at 0.4% (w/v) in 1% acetic acid is added to each well, and plates are incubated for 10 minutes at room temperature. After staining, unbound dye is removed by washing five times with 1% acetic acid and the plates are air dried. Bound stain is subsequently solubilised with 10 mM trizma base, and the absorbance is read on an automated plate reader at a wavelength of 515 nm. For suspension cells, the methodology is the same except that the assay is terminated by fixing settled cells at the bottom of the wells by gently adding 50 μl of 80% TCA (final concentration, 16% TCA). Using the seven absorbance measurements [time zero, (Tz), control growth, (C), and test growth in the presence of drug at the five concentration levels (Ti)], the percentage growth is calculated at each of the drug concentrations levels. Percentage growth inhibition is calculated as: [(Ti−Tz)/(C−Tz)]×100 for concentrations for which Ti>/=Tz and [(Ti−Tz)/Tz]×100 for concentrations for which Ti<Tz.
(§4) Three dose response parameters are calculated for each experimental agent. Growth inhibition of 50% (GI50) is calculated from [(Ti−Tz)/(C−Tz)]×100=50, which is the drug concentration resulting in a 50% reduction in the net protein increase (as measured by SRB staining) in control cells during the drug incubation. The drug concentration resulting in total growth inhibition (TGI) is calculated from Ti=Tz. The LC50 (concentration of drug resulting in a 50% reduction in the measured protein at the end of the drug treatment as compared to that at the beginning) indicating a net loss of cells following treatment is calculated from [(Ti−Tz)/Tz]×100=−50. Values are calculated for each of these three parameters if the level of activity is reached. However, if the effect is not reached or is exceeded, the value for that parameter is expressed as greater or less than the maximum or minimum concentration tested.

[2] = system: BT-549; assay: NCI screening panel, BT-549 (Breast Cancer)
Description: as §1, §2, §3, §4

[3] = system: PC-3; assay: NCI screening panel, PC-3 (Prostate Cancer)
Description: as §1, §2, §3, §4

[4] = system: SK-OV-3; assay: NCI screening panel, SK-OV-3 (Ovarian Cancer)
Description: as §1, §2, §3, §4

[5] = system: A498; assay: NCI screening panel, A498 (Renal Cancer)
Description: as §1, §2, §3, §4

[6] = system: SK-MEL-28; assay: NCI screening panel, SK-MEL-28 (Melanoma)
Description: as §1, §2, §3, §4

[7] = system: OVCAR-8; assay: NCI screening panel, OVCAR-8 (Ovarian Cancer)
Description: as §1, §2, §3, §4

[8] = system: A549/ATCC; assay: NCI screening panel, A549/ATCC (Non-Small Cell Lung Cancer)
Description: as §1, §2, §3, §4

[9] = system: SNB-75; assay: NCI screening panel, SNB-75 (CNS Cancer)
Description: as §1, §2, §3, §4

[10] = system: MOLT-4; assay: NCI screening panel, MOLT-4 (Leukemia)
Description: as §1, §2, §3, §4

[11] = system: RXF 393; assay: NCI screening panel, RXF 393 (Renal Cancer)
Description: as §1, §2, §3, §4

[12] = system: IGROV1; assay: NCI screening panel, IGROV1 (Ovarian Cancer)
Description: as §1, §2, §3, §4

[13] = system: SW-620; assay: NCI screening panel, SW-620 (Colon Cancer)
Description: as §1, §2, §3, §4

[14] = system: HT29; assay: NCI screening panel, HT29 (Colon Cancer)
Description: as §1, §2, §3, §4

[15] = system: SN12C; assay: NCI screening panel, SN12C (Renal Cancer)
Description: as §1, §2, §3, §4

With `CC(C)C[C@H](NC(=O)[C@H](COC(F)F)NC(=O)CN1CCOCC1)C(=O)N[C@@H](COC(F)F)C(=O)N[C@@H](CC(C)C)C(=O)[C@@]1(C)CO1` [Example 1, (2S)—N-[(1S)-1-(difluoromethoxymethyl)-2-[[(1S)-3-methyl-1-[(2R)-2-methyloxirane-2-carbonyl]butyl]amino]-2-oxo-ethyl]-2-[[(2S)-3-(difluoromethoxy)-2-[(2-morpholinoacetyl)amino]propanoyl]amino]-4-methyl-pentanamide] the Log10GI50 [1] was -8.00, the Log10LC50 [1] was −6.33 and the Log10TGI50 [1] was −7.34. The Log10GI50 [2] was −7.85, the Log10LC50 [2] was −6.61 and the Log10TGI50 [2] was −7.40. It also gave a Log10GI50 [3] of −7.49, a Log10TGI50 [3] of −6.81 and a Log10GI50 [4] of −7.15. It also gave a Log10TGI50 [4] of −6.36, a Log10GI50 [5] of −7.59 and a Log10LC50 [5] of −6.06. It also gave a Log10TGI50 [5] of −6.93, a Log10GI50 [6] of −7.56 and a Log10LC50 [6] of over −4.00. The Log10TGI50 [6] was −6.97, the Log10GI50 [7] was −6.85 and the Log10LC50 [7] was over −4.00. The Log10TGI50 [7] was over −4.00, the Log10GI50 [8] was −7.46 and the Log10LC50 [8] was over −4.00. The Log10TGI50 [8] was −5.49, the Log10GI50 [9] was −7.66 and the Log10LC50 [9] was −5.88. For the same compound, the Log10TGI50 [9] was −7.29, the Log10GI50 [10] was −7.57 and the Log10LC50 [10] was over −4.00. It also gave a Log10TGI50 [10] of −6.98, a Log10GI50 [11] of −6.96 and a Log10LC50 [11] of −6.21. It also gave a Log10TGI50 [11] of −6.59, a Log10GI50 [12] of −7.43 and a Log10LC50 [12] of over −4.00. For the same compound, the Log10TGI50 [12] was −6.40, the Log10GI50 [13] was −7.54 and the Log10LC50 [13] was over −4.00. The Log10TGI50 [13] was −5.43, the Log10GI50 [14] was −7.77 and the Log10LC50 [14] was over −4.00. For the same compound, the Log10TGI50 [14] was −4.15, the Log10GI50 [15] was −7.31 and the Log10LC50 [15] was −4.88. For the same compound, the Log10TGI50 [15] was −6.62.

`CC(C)C[C@H](NC(=O)[C@H](COC(F)F)NC(=O)CN1CCOCC1)C(=O)N[C@@H](Cc1ccccc1)C(=O)N[C@@H](CC(C)C)C(=O)[C@@]1(C)CO1` [Example 2, (2S)-N-[(1S)-1-benzyl-2-[[(1S)-3-methyl-1-[(2R)-2-methyloxirane-2-carbonyl]butyl]-amino]-2-oxo-ethyl]-2-[[(2S)-3-(difluoromethoxy)-2-[(2-morpholinoacetyl)amino]propanoyl]amino]-4-methyl-pentanamide] gave a Log10GI50 [1] of under -8.00, a Log10LC50 [1] of −6.97 and a Log10TGI50 [1] of −7.72. For the same compound, the Log10GI50 [2] was under −8.00, the Log10LC50 [2] was −6.84 and the Log10TGI50 [2] was −7.48. It also gave a Log10GI50 [3] of −7.57, a Log10LC50 [3] of −5.62 and a Log10TGI50 [3] of −6.93. It also gave a Log10GI50 [4] of −7.15, a Log10LC50 [4] of over −4.00 and a Log10TGI50 [4] of −6.21. The Log10GI50 [5] was −7.67, the Log10LC50 [5] was −6.23 and the Log10TGI50 [5] was −7.12. The Log10GI50 [6] was −7.50, the Log10LC50 [6] was −5.23 and the Log10TGI50 [6] was −6.71. It also gave a Log10GI50 [7] of −7.22, a Log10LC50 [7] of over −4.00 and a Log10TGI50 [7] of −6.25. For the same compound, the Log10GI50 [8] was −7.52, the Log10LC50 [8] was over −4.00 and the Log10TGI50 [8] was −5.93. It also gave a Log10GI50 [9] of −7.75, a Log10LC50 [9] of −5.91 and a Log10TGI50 [9] of −7.30. It also gave a Log10GI50 [10] of under -8.00, a Log10LC50 [10] of over −4.00 and a Log10TGI50 [10] of −5.79. The Log10GI50 [11] was −7.52, the Log10LC50 [11] was −6.41 and the Log10TGI50 [11] was −6.98. It also gave a Log10GI50 [12] of −7.59, a Log10LC50 [12] of over −4.00 and a Log10TGI50 [12] of −6.66. The Log10GI50 [13] was under −8.00, the Log10LC50 [13] was over −4.00 and the Log10TGI50 [13] was −5.92. The Log10GI50 [14] was under −8.00, the Log10LC50 [14] was over −4.00 and the Log10TGI50 [14] was −7.04. The Log10GI50 [15] was −7.40, the Log10LC50 [15] was −4.92 and the Log10TGI50 [15] was −6.64.

Compound `CC(C)C[C@H](NC(=O)[C@H](COC(F)F)NC(=O)CN1CCOCC1)C(=O)N[C@@H](Cc1ccccc1)C(=O)N[C@@H](Cc1ccccc1)C(=O)[C@@]1(C)CO1` [Example 3, (2S)-N-[(1S)-1-benzyl-2-[[(1S)-1-benzyl-2-[(2R)-2-methyloxiran-2-yl]-2-oxo-ethyl]amino]-2-oxo-ethyl]-2-[[(2S)-3-(difluoromethoxy)-2-[(2-morpholinoacetyl)-amino]propanoyl]amino]-4-methyl-pentan-amide] has a Log10GI50 [1] of under −8.00, a Log10LC50 [1] of over −4.00 and a Log10TGI50 [1] of −7.34. For the same compound, the Log10GI50 [2] was under −8.00, the Log10LC50 [2] was −4.21 and the Log10TGI50 [2] was −7.32. For the same compound, the Log10GI50 [3] was −7.73, the Log10LC50 [3] was −6.09 and the Log10TGI50 [3] was −7.04. It also gave a Log10GI50 [4] of −7.26, a Log10LC50 [4] of over −4.00 and a Log10TGI50 [4] of −6.16. For the same compound, the Log10GI50 [5] was −7.97, the Log10LC50 [5] was −6.34 and the Log10TGI50 [5] was −7.26. The Log10GI50 [6] was −7.65, the Log10LC50 [6] was over −4.00 and the Log10TGI50 [6] was −6.27. The Log10GI50 [7] was −7.25, the Log10LC50 [7] was over −4.00 and the Log10TGI50 [7] was −6.29. It also gave a Log10GI50 [8] of −7.65, a Log10LC50 [8] of over −4.00 and a Log10TGI50 [8] of over −4.00. For the same compound, the Log10GI50 [9] was −7.66, the Log10LC50 [9] was −4.61 and the Log10TGI50 [9] was −7.11. It also gave a Log10GI50 [10] of under −8.00, a Log10TGI50 [10] of over −4.00 and a Log10GI50 [11] of −7.64. It also gave a Log10LC50 [11] of −6.58, a Log10TGI50 [11] of −7.18 and a Log10GI50 [12] of −7.93. The Log10LC50 [12] was over −4.00, the Log10TGI50 [12] was −7.02 and the Log10GI50 [13] was under −8.00. For the same compound, the Log10LC50 [13] was −4.27, the Log10TGI50 [13] was −6.63 and the Log10GI50 [14] was under −8.00. It also gave a Log10LC50 [14] of −4.44, a Log10TGI50 [14] of −6.25 and a Log10GI50 [15] of −7.68. For the same compound, the Log10LC50 [15] was −6.24 and the Log10TGI50 [15] was −6.85.
